Among the data in PubChem BioAssay AID651977 (The Scripps Research Institute Molecular Screening Center, 2013) are IC50 values, retold here.

The source made the active and inactive calls. The rule behind the calls is not given here.

This experiment addresses Steroidogenic factor 1 (Homo sapiens) (UniProt Q13285). Kind of experiment: SF1 (NR5A1) inverse agonist potency, late-stage follow-up, selectivity assay for LRH-1 inverse agonist project, cell-based, luminescence, dose response (AID 651977). Particulars: SF1 cell-based luciferase reporter, inverse agonism.

Steroidogenic factor 1 (Homo sapiens), sequence (Q13285 whole entry, looked up): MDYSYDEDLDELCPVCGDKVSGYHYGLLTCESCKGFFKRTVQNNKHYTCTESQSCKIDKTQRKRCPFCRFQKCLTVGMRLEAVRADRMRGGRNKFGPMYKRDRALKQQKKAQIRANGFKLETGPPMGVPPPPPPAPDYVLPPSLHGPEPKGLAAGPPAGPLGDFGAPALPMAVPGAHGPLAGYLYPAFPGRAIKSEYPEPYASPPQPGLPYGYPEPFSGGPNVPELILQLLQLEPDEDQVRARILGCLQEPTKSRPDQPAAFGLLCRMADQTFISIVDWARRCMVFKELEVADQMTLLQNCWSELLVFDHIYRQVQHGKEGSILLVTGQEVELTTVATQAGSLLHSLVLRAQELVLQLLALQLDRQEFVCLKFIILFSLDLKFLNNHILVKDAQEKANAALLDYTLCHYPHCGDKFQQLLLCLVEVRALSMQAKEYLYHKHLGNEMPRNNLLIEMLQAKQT

`N#CCSc1ccccc1NC(=O)CN1C(=O)C2CC=CCC2C1=O` (stereo unspecified): the IC50 is > 35.9 µM (inactive).
